Experimental data from ChEMBL document CHEMBL4038345, “Design, Synthesis, and Biological Evaluation of Novel Selenium-Containing Isocombretastatins and Phenstatins as Antitumor Agents” (J Med Chem, 2017).
Activity calls are given as the source filed them. The rule behind the calls is not given here.

Legend:
A549 [1] = test: Disruption of mitochondrial membrane potential in human A549 cells assessed as intact mitochondrial membrane at 10 nM after 24 hrs by JC1 staining-based flow cytometry method (reference value: 99.18%); type: functional
[2] = Half life in Sprague-Dawley rat by UV-based HPLC-MS/MS analysis; type: ADME; settings: in vivo
A549 [3] = test: Induction of apoptosis in human A549 cells assessed as late apoptotic cells at 5 nM for 24 hrs by annexin V-FITC/propidium iodide staining-based flow cytometry analysis; type: functional
A549 [4] = test: Disruption of mitochondrial membrane potential in human A549 cells at 1 to 10 nM after 24 hrs by JC1/Hoechst 33342 staining-based fluorescence microscopic method; type: functional, cell-based
A549 [5] = test: Disruption of mitochondrial membrane potential in human A549 cells at 1 nM after 24 hrs by JC1 staining-based flow cytometry method (reference value: 0.62%); type: functional
A549 [6] = test: Induction of microtubule disruption in human A549 cells at 5 to 10 nM after 8 to 24 hrs by Hoechst 33342 staining-based laser scanning confocal immunofluorescence microscopic analysis; type: cell-based
A549 [7] = test: Induction of apoptosis in human A549 cells assessed as upregulation of Bad expression at 1 to 10 nM after 24 to 48 hrs by Western blot analysis; type: functional, cell-based
HeLa = test: cells; settings: Homo sapiens, 48 h
A549 [8] = test: Induction of apoptosis in human A549 cells assessed as early apoptotic cells at 10 nM for 24 hrs by annexin V-FITC/propidium iodide staining-based flow cytometry analysis (reference value: 0.82%); type: functional
A549 [9] = test: Induction of apoptosis in human A549 cells assessed as early apoptotic cells at 5 nM for 48 hrs by annexin V-FITC/propidium iodide staining-based flow cytometry analysis (reference value: 0.97%); type: functional
A549 [10] = test: Induction of apoptosis in human A549 cells assessed as necrotic cells at 1 nM for 48 hrs by annexin V-FITC/propidium iodide staining-based flow cytometry analysis (reference value: 0.02%); type: functional
A549 [11] = test: Induction of apoptosis in human A549 cells assessed as late apoptotic cells at 1 nM for 24 hrs by annexin V-FITC/propidium iodide staining-based flow cytometry analysis; type: functional
A549 [12] = test: Induction of apoptosis in human A549 cells assessed as live cells at 1 nM for 24 hrs by annexin V-FITC/propidium iodide staining-based flow cytometry analysis (reference value: 99.15%); type: functional
[13] = Antiproliferative activity against human HepG2/DOX cells after 48 hrs by MTT assay; type: functional, cell-based
A549 [14] = test: Induction of apoptosis in human A549 cells assessed as necrotic cells at 10 nM for 48 hrs by annexin V-FITC/propidium iodide staining-based flow cytometry analysis (reference value: 0.02%); type: functional
A549 [15] = test: Induction of apoptosis in human A549 cells assessed as necrotic cells at 10 nM for 24 hrs by annexin V-FITC/propidium iodide staining-based flow cytometry analysis (reference value: 0.03%); type: functional
Sus scrofa = species on record: Sus scrofa; test: (§1) Inhibition of porcine brain tubulin polymerization measured every 60 seconds for 90 mins by DAPI staining-based fluorescence assay
[16] = as §1; design: species or system Sus scrofa
A549 [17] = test: Disruption of mitochondrial membrane potential in human A549 cells at 5 nM after 24 hrs by JC1 staining-based flow cytometry method (reference value: 0.62%); type: functional
A549 [18] = test: Induction of apoptosis in human A549 cells assessed as live cells at 10 nM for 24 hrs by annexin V-FITC/propidium iodide staining-based flow cytometry analysis (reference value: 99.15%); type: functional

Question: With C=C(c1ccc(OC)c(O)c1)c1cc(OC)c(OC)c([Se]C)c1 as the compound, how does the Activity (A549 [1]) read?
Answer: Its Activity is 9.14%.

Question: What about the half-life [2] of the same compound?
Answer: Its half-life is 74.5 min.

Question: And the Activity (A549 [3])?
Answer: Its Activity is 2.52%.

Question: What about the Activity (A549 [4]) of the same compound?
Answer: Its Activity is “Active”.

Question: What about the Activity (A549 [5]) of the same compound?
Answer: Its Activity is 12.78%.

Question: And the Activity (A549 [6])?
Answer: The Activity was “Active”.

Question: And the Activity (A549 [7])?
Answer: Its Activity is “Active”.

Question: And the IC50 (HeLa)?
Answer: The IC50 was 3 nM.

Question: What about the Activity (A549 [8]) of the same compound?
Answer: Its Activity is 49.48%.

Question: And the Activity (A549 [9])?
Answer: Its Activity is 15.69%.

Question: And the Activity (A549 [10])?
Answer: The Activity was 0.86%.

Question: And the Activity (A549 [11])?
Answer: The Activity was 0.01%.

Question: What about the Activity (A549 [12]) of the same compound?
Answer: Its Activity is 96.34%.

Question: What about the IC50 [13] of the same compound?
Answer: The IC50 was 20.3 nM.

Question: What about the Activity (A549 [14]) of the same compound?
Answer: The Activity was 13.55%.

Question: And the Activity (A549 [15])?
Answer: The Activity was 0.08%.

Question: What about the inhibition (Sus scrofa) of the same compound?
Answer: The inhibition was “Dose-dependent effect”.

Question: And the IC50 [16]?
Answer: The IC50 was 1380 nM.

Question: What about the Activity (A549 [17]) of the same compound?
Answer: Its Activity is 42.63%.

Question: And the Activity (A549 [18])?
Answer: Its Activity is 48.49%.
